Results: patent US8273775B2, “Non-steroidal brassinosteroid mimetic” (priority 2006, dated 2012)

Columns and labels:
[1] = system: bri1-116, bri1-301 mutants; test: Phenotype rescue of BR perception (receptor) mutants; type: in vivo, Arabidopsis thaliana; settings: for phenotype rescue of bri1-116 mutant: day 5 to day 11 on 1 μM BL or 30 μM ABRASIN; for rescue of dwarfed phenotype: light-grown, abrasin 50 μM or BL 1 μM
Method: FIG. 5: Effect of brassinolide (BL) and abrasin (I5) treatment on mutants. WT or mutant plants were grown under standard conditions on agar plates. After 3 days of germination, plants were transferred to agar plates containing abrasin at a concentration of 50 μM or BL at a concentration of 1 μM.
(§1) For further phenotypical analysis, all plants were grown on vertically oriented square plates (Greiner Labortechnik, Austria) with solid medium derived from standard Murashige and Skoog medium under the same conditions. For the hypocotyl-elongation assay, plants were grown in the dark at 22° C. under the same conditions.
(§2) Col-0, the null BR signaling bri1-116 (Friedrichsen et al., 2000) and BR biosynthetic cpd (Szekeres et al., 1996) mutants were subjected to phenotype rescue analysis by treatments with BL and ABRASIN. As a negative control, dimethylsulfoxide (DMSO) was used. Plants were germinated in vitro for 5 days on ½ MS containing DMSO medium and from day 6th to day 11th they were transferred on medium supplemented with BL (10 nM, 100 nM, 1000 nM), ABRASIN (5 μM, 10 μM, 30 μM) or DMSO. Cotyledons and leaves were collected for flowcytometric analysis at the 11th day (i.e. 6 days of treatments). Samples for β-glucuronidase (GUS) assay were taken on day 6th (i.e. 1 day treatments), 8th (i.e. 3 days treatments), 10th (i.e. 5 days treatments). Rescue of soil-grown mutants at different growth stages was checked by watering bri1-116 and cpd mutants with either BL or 2 ml 300 μM ABRASIN per day.

bri1-116 and cpd mutants = test: Flowcytometric analysis of DNA content of cotyledons and leaves; type: in vivo, Arabidopsis; settings: 6 days of treatments
Method: FIG. 16: Rescue of bri1-116 and cpd mutants grown on different concentrations of ABRASIN and BL. The plants were germinated on MS+DMSO medium till day 5 and afterwards transferred on MS supplemented with the respective concentration of ABRASIN and BL for 6 more days. Flowcytometric analysis of cotyledons and leaves was performed at the last day of treatments. (A.) Rescue of bri1-116 mutants by ABRASIN. Increasing the ABRASIN concentration promotes cell division activation. (B.) Rescue of cpd mutants by ABRASIN. Increasing the ABRASIN concentration promotes cell division activation. (C.) Rescue of cpd mutants by BL. Both cell division and endoreduplication take place in the BL rescue strategy. BL: brassinolide; BIK: abrasin.
as §2
Samples for flow cytometric analysis were collected and analyzed as described earlier (De Veylder et al., 2001)

[2] = system: DR5, CYCB1;1 and CDKB1;1 promoters fused to GUS; test: GUS assay of promoter-reporter markers in first leaf; type: in vivo, Arabidopsis; settings: for CDKB1;1-GUS expression: 30 μM ABRASIN or 1 μM BL, days 8 and 10
Method: FIG. 17: Investigation of differences in the rescue strategy of bri1-116 and cpd mutants treated with ABRASIN (30 μM) or BL (1 μM). The activation of markers for auxin response (DR5) and cell division (CYCB1; 1 and CDKB1; 1) was followed by localization of their promoters fused to β-glucuronidase (GUS) reporter gene. […] Samples for GUS assay were taken on day 6th (i.e. 1 day treatment), 8th (i.e. 3 days treatment), 10th (i.e. 5 days treatment). (A.) The effect of ABRASIN on the first leaf of bri1-116 and Col-0 plants—activity localization of DR5, CYCB1; 1 and CDKB1; 1 promoters fused to GUS reporter gene (B.) The effect of ABRASIN on the first leaf of cpd and Col-0 plants—activity localization of CYCB1; 1 and CDKB1; 1 promoters fused to GUS reporter gene. BL: brassinolide; BIK: abrasin.
as §2
GUS staining was carried out by the method described by Jefferson et al. (1987). Images of GUS stained plants were taken with binocular microscope (MZ16, Leica) and Nikon camera.

[3] = system: BES1 protein in 35S:BES1:GFP plants; test: Western blot analysis of BES1 phosphorylation state; type: in vivo, Arabidopsis thaliana
Method: FIG. 8: A: Western Blot analysis of the BES1 protein in 35S:BES1:GFP plants treated with BL and abrasin (indicated as I5 throughout the figure) (A); MG132 with BL or abrasin (B); a time course with abrasin (C) and a concentration gradient with abrasin (D). B: Abrasin and BL induce similar transcriptional regulation of the BR pathway.
For protein extraction, six-day-old seedlings were grown under standard conditions as described earlier on solid medium. Plants were next soaked in liquid MS-medium supplemented with the indicated compounds (concentrations and time periods as indicated in figures). Subsequently, plants were frozen in liquid nitrogen, ground and homogenized in ice-cold homogenization buffer (25 mM Tris-HCl (pH 8), 5 mM EDTA, 1 mM β-Mercapto-ethanol, 15 mM MgCl—2, 85 mM NaCl, 0.1% Tween 20, 1 protease inhibitor tablet/50 ml, Complete (Roche diagnostics, Belgium)). The homogenate was centrifuged twice (5 min, 14.000 rpm, 4° C.) in an Eppendorf Centrifuge 5417. Loading buffer was added, the samples were heated for 10 min at 95° C. and centrifuged. The samples were separated on a 12% acrylamide gel or a 4-20% gradient pre-cast gel (Bio-Rad) and blotted on nitrocellulose membranes (Hybond-C super, GE-Biosciences, UK) in 190 mM glycine and 25 mM Tris-Hcl using a mini-blotting system (Bio-Rad, USA) for 1 h. Membranes were blocked overnight at 4° C. in phosphate buffer with 0.1% Tween 20 and 5% skim milk (BD Difco, USA). For immunodetection, anti-BES1 antibodies at 1:2000 dilution and anti-GFP antibodies at 1:1000 dilution were used as primary antibody. As secondary antibody, anti-rat and anti-rabbit were used at 1:10.000 dilution. The proteins were detected by chemiluminescence (Perkin-Elmer, USA).

[4] = system: Arabidopsis thaliana seedlings; test: Chemical genetics screening for brassinosteroid-related phenotypes; type: in vivo; settings: young seedlings
Method: A commercial 10.000 compound library (DiverSet, ChemBridge, USA) was screened for brassinosteroid related phenotypes. Three to four Arabidopsis thaliana (L.) Heynh. seeds were sown in 96-well filterplates (Multiscreen HTS MSBVS1210, Millipore, USA) in liquid medium derived from standard Murashige and Skoog (MS) medium in a growth chamber under continuous light (110 μE.m^2. s^1 photosynthetically active radiation, supplied by cool-white fluorescent tungsten tubes; Osram) at 22° C. Three days after germination compounds were added to the 96-well plates at a final concentration of 50 μM. Plants were screened six days after germination for brassinosteroid-related phenotypes.
as §1

[5] = system: cpd, det2-1, bri1-116 and bri1-301 mutants; test: Hypocotyl-elongation assay of dark-grown BR mutants; type: in vivo, Arabidopsis thaliana; settings: grown in the dark, 50 μM abrasin
Method: FIG. 6: Rescue of dark-grown BL mutants after treatment with 50 μM of abrasin (I5).
as §1

`CC(C)[C@H](C)[C@@H](O)[C@H](O)[C@@H](C)[C@H]1CC[C@H]2[C@@H]3COC(=O)[C@H]4C[C@H](O)[C@H](O)C[C@]4(C)[C@H]3CC[C@]12C` [BL, brassinolide, reference compound] was tested, and the “phenotype rescue of bri1-116 mutant” value [1] was “bri1-116 was insensitive and therefore unaffected by BL”, the “rescue of dwarfed phenotype” value [1] was “but not the bri1 receptor mutants” and the “DNA content distribution of leaves” value (bri1-116 and cpd mutants) was “did not significantly changes the DNA content distribution”. For the same compound, the “CDKB1;1-GUS expression” value [2] was “induced only stomata specific expression” and the BES1 phosphorylation state ([3]; addition of BL or MG132) was “induces more non-phosphorylated protein”.
`O=C(O)CCC(=O)Nc1ccc(Br)cn1` [abrasin, 4-[(5-bromo-2-pyridinyl)amino]-4-oxobutanoic acid] was tested, and the “time after treatment at which phenotypic changes were observed” value ([1]; bri1-116 and cpd mutants, 30 μM ABRASIN) was 1 days, the “concentration sufficient to rescue the mutant phenotypes” value ([1]; bri1-116 and cpd mutants, 6 days of treatments) was 10 µM and the “phenotype rescue of bri1-116 mutant” value [1] was “rescued the phenotypes of both bri1-116 and cpd mutants to the wild-type”. The “rescue of dwarfed phenotype” value [1] was “all mutant lines, including the bri1 receptor mutants, showed an elongated phenotype”, the “DNA content distribution of leaves” value (bri1-116 and cpd mutants) was “significantly increased the 2C and 4C content and completely suppressed the 16C content” and the “DNA content of cotyledons” value (bri1-116 and cpd mutants) was “the values for cotyledons did not differ form the untreated controls”. For the same compound, the “elongation of leaves, petioles and the hypocotyl” value [4] was “strongly induced elongation of leaves, petioles and the hypocotyl in a dosage-dependent manner”, the “CYCB1;1 expression (cell division marker)” value ([2]; 30 μM ABRASIN) was “increased the CYCB1; 1 expression” and the “CDKB1;1-GUS expression” value [2] was “activated CDKB1; 1-GUS predominately in the leaf vasculature”. For the same compound, the “DR5 activity in the leaves” value ([2]; 1 day of treatment) was “did not significantly increases the DR5 activity in the leaves”, the “DR5 activity / auxin levels in the leaves” value ([2]; longer treatment) was “the auxin levels in both bri1-116 and wild type leaves were increased after longer treatment” and the “total amount of BES1 protein” value ([3]; abrasin 50 μM) was “the total amount of BES1 protein is also reduced”. For the same compound, the BES1 phosphorylation state ([3]; abrasin 5 to 10 μM) was “a shift towards non-phosphorylated BES1 is observed”, the “time to shift towards the non-phosphorylated BES1 protein” value ([3]; after addition to the medium) was no more than 30 min and the “hypocotyl length of dark-grown mutants” value [5] was “all mutant lines had hypocotyls of normal length”.
